Measurements as given in patent publication US20240190860A1, “8-CYCLO-SUBSTITUTED QUINAZOLINE DERIVATIVES AS LPA RECEPTOR 2 INHIBITORS” (CHIESI FARMACEUTICI S.p.A., priority 2021, published 2024).

The compounds below were run against T1, human recombinant LPA2 expressed in CHO cells (Homo sapiens, UniProt Q9HBW0) (assay: FLIPR calcium mobilization assay, LPA2 antagonism in CHO-hLPA2 cells). Conditions: CHO-hLPA2 cells, inhibition of LPA EC80 Ca2+ response, 30 min pre-incubation; read-out: LPA2 IC50.
T1 construct: expressed in transfected cells; host or cells: CHO cells (CHO-hLPA2 cell line)
T1 sequence (Q9HBW0 whole entry): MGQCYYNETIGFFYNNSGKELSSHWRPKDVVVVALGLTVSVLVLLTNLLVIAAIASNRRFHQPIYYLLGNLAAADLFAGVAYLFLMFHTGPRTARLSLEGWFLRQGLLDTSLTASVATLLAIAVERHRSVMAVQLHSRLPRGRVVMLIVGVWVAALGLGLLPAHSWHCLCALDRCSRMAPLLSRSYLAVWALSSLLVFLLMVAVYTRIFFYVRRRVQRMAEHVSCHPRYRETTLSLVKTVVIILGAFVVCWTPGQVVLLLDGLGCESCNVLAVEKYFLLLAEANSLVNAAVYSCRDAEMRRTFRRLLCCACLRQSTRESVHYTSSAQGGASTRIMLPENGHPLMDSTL
Assay type: cell-based
Experimental: The effectiveness of compounds of the present invention as LPA2 antagonist can be determined at the human recombinant LPA2 expressed in CHO cells, using a FLIPR assay in 384 well format.
CHO-hLPA2 cell lines are cultured in a humidified incubator at 5% C02 in DMEM/F-12 (1:1) MIXTURE with 2 mM Glutamax, supplemented with 10% of Foetal Bovine Serum, 1 mM Sodium Pyruvate, 11 mM Hepes and 1× Penicillin/Streptomycin. CHO hLPA2 cells are seeded into black walled clear-bottom 384-well plates (#781091, Greiner Bio-One GmbH) at a density of 7,500 cells per well in 50 μl culture media and grown overnight in a 37° C. humidified CO2-incubator. Serial dilutions (1:3 or 1:4, 11 points CRC) of compounds are performed in 100% DMSO at 200× the final concentration. The compounds are diluted 1:50 prior to the experiment with Assay Buffer (20 mM HEPES, 145 mM NaCl, 5 mM KCl, 5.5 mM glucose, 1 mM MgCl2 and 2 mM CaCl2, pH 7.4 containing 0.01% Pluronic F-127) to obtain a solution corresponding to […] the final concentration in the assay (4×, 2% DMSO). The final concentration of DMSO in the assay will be 0.5% in each well. Medium is removed by aspiration and cells are then incubated with 30 μl of a loading solution containing 5 μM of the cytoplasmic Ca2+ indicator Cal-520 AM in Assay Buffer containing 2.5 mM probenecid for 30 min at 37° C. incubator (cell loading). The loaded cell plates are transferred into the FLIPR instrument and calcium responses are monitored during the on-line addition protocols. For testing of compounds, after the cell loading, 10 μl/well of 4× antagonists' solution was added onto the cells. After 30 min pre-incubation (at 37° C.), 10 μl/well of 5× concentrated LPA EC80 was added and Ca2+ mobilization responses was followed during the on-line addition protocol. Intracellular peak fluorescence values subtracted by baseline fluorescence are exported and analysed to determine IC50 values, respectively. The calcium response is expressed as percentage of the maximal inhibition of the EC80 agonist response.
The raw data (peak height expressed as relative fluorescence units) are normalized and transformed into “percent of inhibition”. Curve fitting and pIC50 (−LogIC50) estimations are carried out using a four-parameter logistic model using XLfit Software.
For `Cc1cc(-c2ccc(S(=O)(=O)N3CCN(C[C@H](C)Nc4ncnc5c(-c6cccc(CN(C)C)c6)cccc45)CC3)s2)on1` [Example 17, 8-{3-[(dimethylamino)methyl]phenyl}-N-[(2S)-1-(4-{[5-(3-methyl-1,2-oxazol-5-yl)thiophen-2-yl]sulfonyl}piperazin-1-yl)propan-2-yl]quinazolin-4-amine], the IC50 was < 10 nM.
`COC(=O)Nc1nc(C)c(S(=O)(=O)N2CCN(C[C@H](C)Nc3ncnc4c(-c5cc(C)ncn5)cccc34)CC2)s1` [Example 95, methyl N-[4-methyl-5-({4-[(2S)-2-{[8-(6-methylpyrimidin-4-yl)quinazolin-4-yl]amino}propyl]piperazin-1-yl}sulfonyl)-1,3-thiazol-2-yl]carbamate] was tested, and the IC50 was 10 to 100 nM.
`Cc1cc(-c2ccc(S(=O)(=O)N3CCN(C[C@H](C)Nc4ncnc5c(-c6c(C)nn(C)c6C)cccc45)CC3)s2)on1` [Example 5, N-[(2S)-1-(4-{[5-(3-methyl-1,2-oxazol-5-yl)thiophen-2-yl]sulfonyl}piperazin-1-yl)propan-2-yl]-8-(1,3,5-trimethyl-1H-pyrazol-4-yl)quinazolin-4-amine] was tested, and the IC50 was < 10 nM.
In the case of `COC(=O)Nc1nc(C)c(S(=O)(=O)N2CCN(C[C@H](C)Nc3ncnc4c(-c5ccc(N(C)C)nc5)cccc34)CC2)s1` [Example 26, methyl N-[5-({4-[(2S)-2-({8-[6-(dimethylamino)pyridin-3-yl]quinazolin-4-yl}amino)propyl]piperazin-1-yl}sulfonyl)-4-methyl-1,3-thiazol-2-yl]carbamate], the IC50 is reported as < 10 nM.
For `Cc1nc(NCCN(C)C)sc1S(=O)(=O)N1CCN(C[C@H](C)Nc2ncnc3c(-c4c(C)n[nH]c4C)cccc23)CC1` [Example 39, 8-(3,5-dimethyl-1H-pyrazol-4-yl)-N-[(2S)-1-{4-[(2-{[2-(dimethylamino)ethyl]amino}-4-methyl-1,3-thiazol-5-yl)sulfonyl]piperazin-1-yl}propan-2-yl]quinazolin-4-amine], the IC50 was 10 to 100 nM.
`C[C@@H](CN1CCN(S(=O)(=O)c2ccc3c(c2)sc(=O)n3C)CC1)Nc1ncnc2c(-c3cccnc3)cccc12` [Example 94, 3-methyl-6-({4-[(2S)-2-{[8-(pyridin-3-yl)quinazolin-4-yl]amino}propyl]piperazin-1-yl}sulfonyl)-2,3-dihydro-1,3-benzothiazol-2-one] gave an IC50 of 10 to 100 nM.
`COC(=O)Nc1nc(C)c(S(=O)(=O)N2CCN(C[C@H](C)Nc3ncnc4c(-c5cncc(CN(C)C)c5)cccc34)CC2)s1` [Example 55, methyl N-[5-({4-[(2S)-2-[(8-{5-[(dimethylamino)methyl]pyridin-3-yl}quinazolin-4-yl)amino]propyl]piperazin-1-yl}sulfonyl)-4-methyl-1,3-thiazol-2-yl]carbamate] was tested, and the IC50 was < 10 nM.
In the case of `Cc1cc(-c2ccc(S(=O)(=O)N3CCN(C[C@H](C)Nc4ncnc5c(-c6cnc(C(F)(F)F)s6)cccc45)CC3)s2)on1` [Example 15, N-[(2S)-1-(4-{[5-(3-methyl-1,2-oxazol-5-yl)thiophen-2-yl]sulfonyl}piperazin-1-yl)propan-2-yl]-8-[2-(trifluoromethyl)-1,3-thiazol-5-yl]quinazolin-4-amine], the IC50 is reported as < 1000 nM.
With `COC(=O)Nc1nc(C)c(S(=O)(=O)N2CCN(C[C@H](C)Nc3ncnc4c(-c5c(C)n[nH]c5C)cccc34)CC2)s1` [Example 27, methyl N-[5-({4-[(2S)-2-{[8-(3,5-dimethyl-1H-pyrazol-4-yl)quinazolin-4-yl]amino}propyl]piperazin-1-yl}sulfonyl)-4-methyl-1,3-thiazol-2-yl]carbamate] the IC50 was < 10 nM.
For `COC(=O)Nc1nc(C)c(S(=O)(=O)N2CCN(C[C@H](C)Nc3ncnc4c(-c5ccc(N6CCN(C)CC6)cc5)cccc34)CC2)s1` [Example 36, methyl N-[4-methyl-5-({4-[(2S)-2-({8-[4-(4-methylpiperazin-1-yl)phenyl]quinazolin-4-yl}amino)propyl]piperazin-1-yl}sulfonyl)-1,3-thiazol-2-yl]carbamate], the IC50 was < 10 nM.
`COC(=O)Nc1nc(C)c(S(=O)(=O)N2CCN(C[C@H](C)Nc3ncnc4c(-c5ccc(C)nc5)cccc34)CC2)s1` [Example 28, methyl N-[4-methyl-5-({4-[(2S)-2-{[8-(6-methylpyridin-3-yl)quinazolin-4-yl]amino}propyl]piperazin-1-yl}sulfonyl)-1,3-thiazol-2-yl]carbamate] was tested, and the IC50 was < 10 nM.
For `COC(=O)Nc1nc(C)c(S(=O)(=O)N2CCN(C[C@H](C)Nc3ncnc4c(-c5cccc(C)n5)cccc34)CC2)s1` [Example 71, methyl N-[4-methyl-5-({4-[(2S)-2-{[8-(6-methylpyridin-2-yl)quinazolin-4-yl]amino}propyl]piperazin-1-yl}sulfonyl)-1,3-thiazol-2-yl]carbamate], the IC50 was < 10 nM.
With `C[C@@H](CN1CCN(S(=O)(=O)c2ccc3c(c2)CC(=O)N3)CC1)Nc1ncnc2c(-c3cccc(CN(C)C)c3)cccc12` [Example 76, 5-({4-[(2S)-2-[(8-{3-[(dimethylamino)methyl]phenyl}quinazolin-4-yl)amino]propyl]piperazin-1-yl}sulfonyl)-2,3-dihydro-1H-indol-2-one] the IC50 was < 10 nM.
`COC(=O)Nc1nc(C)c(S(=O)(=O)N2CCN(C[C@H](C)Nc3ncnc4c(C5CC5)cccc34)CC2)s1` [Example 41, methyl N-[5-({4-[(2S)-2-[(8-cyclopropylquinazolin-4-yl)amino]propyl]piperazin-1-yl}sulfonyl)-4-methyl-1,3-thiazol-2-yl]carbamate] was tested, and the IC50 was 10 to 100 nM.
With `C[C@@H](CN1CCN(S(=O)(=O)c2ccc3[nH]c(=O)sc3c2)CC1)Nc1ncnc2c(-c3cccnc3)cccc12` [Example 38, 6-({4-[(2S)-2-{[8-(pyridin-3-yl)quinazolin-4-yl]amino}propyl]piperazin-1-yl}sulfonyl)-2,3-dihydro-1,3-benzothiazol-2-one] the IC50 was < 10 nM.
With `Cc1ccc(-c2cccc3c(N[C@@H](C)CN4CCN(S(=O)(=O)c5ccc(-c6cc(C)no6)s5)CC4)ncnc23)cn1` [Example 85, N-[(2S)-1-(4-{[5-(3-methyl-1,2-oxazol-5-yl)thiophen-2-yl]sulfonyl}piperazin-1-yl)propan-2-yl]-8-(6-methylpyridin-3-yl)quinazolin-4-amine] the IC50 was < 10 nM.
With `COC(=O)Nc1ncc(S(=O)(=O)N2CCN(C[C@H](C)Nc3ncnc4c(-c5cccc(CN(C)C)c5)cccc34)CC2)s1` [Example 75, methyl N-[5-({4-[(2S)-2-[(8-{3-[(dimethylamino)methyl]phenyl}quinazolin-4-yl)amino]propyl]piperazin-1-yl}sulfonyl)-1,3-thiazol-2-yl]carbamate] the IC50 was < 10 nM.
`C[C@@H](CN1CCN(S(=O)(=O)c2ccccn2)CC1)Nc1ncnc2c(-c3cn(C)nc3C(F)(F)F)cccc12` [Example 103, 8-[1-methyl-3-(trifluoromethyl)-1H-pyrazol-4-yl]-N-[(2S)-1-[4-(pyridine-2-sulfonyl)piperazin-1-yl]propan-2-yl]quinazolin-4-amine] was tested, and the IC50 was 10 to 100 nM.
In the case of `COC(=O)Nc1nc(C)c(S(=O)(=O)N2CCN(C[C@H](C)Nc3ncnc4c(-c5c[nH]nc5C(F)(F)F)cccc34)CC2)s1` [Example 82, methyl N-[4-methyl-5-({4-[(2S)-2-({8-[3-(trifluoromethyl)-1H-pyrazol-4-yl]quinazolin-4-yl}amino)propyl]piperazin-1-yl}sulfonyl)-1,3-thiazol-2-yl]carbamate], the IC50 is reported as < 10 nM.
For `COC(=O)Nc1nc(C)c(S(=O)(=O)N2CCN(C[C@H](C)Nc3ncnc4c(-c5cccc(CN(C)C)c5)cccc34)CC2)s1` [Example 21, methyl N-[5-({4-[(2S)-2-[(8-{3-[(dimethylamino)methyl]phenyl}quinazolin-4-yl)amino]propyl]piperazin-1-yl}sulfonyl)-4-methyl-1,3-thiazol-2-yl]carbamate], the IC50 was < 10 nM.
`Cc1cc(-c2ccc(S(=O)(=O)N3CCN(C[C@H](C)Nc4ncnc5c(-c6cccnc6)cccc45)CC3)s2)on1` [Example 6, N-[(2S)-1-(4-{[5-(3-methyl-1,2-oxazol-5-yl)thiophen-2-yl]sulfonyl}piperazin-1-yl)propan-2-yl]-8-(pyridin-3-yl)quinazolin-4-amine] was tested, and the IC50 was < 10 nM.
With `COC(=O)Nc1nc(C)c(S(=O)(=O)N2CCN(C[C@H](C)Nc3ncnc4c(-c5ccc(C)c(CN(C)C)c5)cccc34)CC2)s1` [Example 91, methyl N-[5-({4-[(2S)-2-[(8-{3-[(dimethylamino)methyl]-4-methylphenyl}quinazolin-4-yl)amino]propyl]piperazin-1-yl}sulfonyl)-4-methyl-1,3-thiazol-2-yl]carbamate] the IC50 was < 10 nM.
